Measured values published in patent US10570125B2, “(Cyano-dimethyl-methyl)-isoxazoles and -[1,3,4]thiadiazoles” (Centrexion Therapeutics Corporation, priority 2013, dated 2020).

Key:
human MDR1 P-gp = human MDR1 P-gp (Homo sapiens (Human), UniProt P08183); experiment: MDCK assay: efflux in MDCK-MDR1 cell monolayers (assay 3); type: in vitro ADME; settings: pH 7.4, 37° C.
Procedure: C. Assessment of Efflux in Madin-Darby Canine Kidney Cells Transfected with the Human MDR1 Gene (MDCK Assay) (Assay 3)
Apparent permeability coefficients (PE) of the compounds across the MDCK-MDR1 cell monolayers are measured (pH 7.4, 37° C.) in apical-to-basal (AB) and basal-to-apical (BA) transport direction. AB permeability (PEAB) represents drug absorption from the blood into the brain and BA permeability (PEBA) drug efflux from the brain back into the blood via both passive permeability as well as active transport mechanisms mediated by efflux and uptake transporters that are expressed on the MDCK-MDR1 cells, predominantly by the overexpressed human MDR1 P-gp. The compounds are assigned to permeability/absorption classes by comparison of the AB permeabilities with the AB permeabilities of reference compounds with known in vitro permeability and oral absorption in the human. Identical or similar permeabilities in both transport directions indicate passive permeation, vectorial permeability points to additional active transport mechanisms. Higher PEBA than PEAB indicates the involvement of active efflux mediated by MDR1 P-gp. Active transport is concentration-dependently saturable. MDCK-MDR1 cells (1-2×10e5 cells/1 cm2 area) are seeded on filter inserts (Costar transwell polycarbonate or PET filters, 0.4 μm pore size) and cultured (DMEM) for 7 days. […]

human CB1R = human CB1R (Homo sapiens (Human), UniProt P21554); experiment: CB1 cAMP (assay 2); type: cell-based; settings: CHO cells expressing human CB1R; inhibition of forskolin-stimulated cAMP
Sequence of human CB1R (P21554 whole entry): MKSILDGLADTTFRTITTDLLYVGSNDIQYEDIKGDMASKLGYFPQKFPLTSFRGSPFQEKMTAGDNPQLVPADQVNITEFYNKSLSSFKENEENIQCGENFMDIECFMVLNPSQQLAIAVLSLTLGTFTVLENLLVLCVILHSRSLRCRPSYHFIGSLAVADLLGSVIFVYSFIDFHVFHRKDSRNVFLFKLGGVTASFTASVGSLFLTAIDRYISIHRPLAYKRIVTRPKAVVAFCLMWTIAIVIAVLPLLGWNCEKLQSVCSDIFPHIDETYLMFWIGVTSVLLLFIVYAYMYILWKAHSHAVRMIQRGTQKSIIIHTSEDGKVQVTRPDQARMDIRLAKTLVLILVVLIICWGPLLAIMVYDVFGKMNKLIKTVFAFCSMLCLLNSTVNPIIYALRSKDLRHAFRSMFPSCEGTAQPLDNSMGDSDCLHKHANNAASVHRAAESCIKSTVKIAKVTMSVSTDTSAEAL

Sequence of human MDR1 P-gp (P08183 whole entry): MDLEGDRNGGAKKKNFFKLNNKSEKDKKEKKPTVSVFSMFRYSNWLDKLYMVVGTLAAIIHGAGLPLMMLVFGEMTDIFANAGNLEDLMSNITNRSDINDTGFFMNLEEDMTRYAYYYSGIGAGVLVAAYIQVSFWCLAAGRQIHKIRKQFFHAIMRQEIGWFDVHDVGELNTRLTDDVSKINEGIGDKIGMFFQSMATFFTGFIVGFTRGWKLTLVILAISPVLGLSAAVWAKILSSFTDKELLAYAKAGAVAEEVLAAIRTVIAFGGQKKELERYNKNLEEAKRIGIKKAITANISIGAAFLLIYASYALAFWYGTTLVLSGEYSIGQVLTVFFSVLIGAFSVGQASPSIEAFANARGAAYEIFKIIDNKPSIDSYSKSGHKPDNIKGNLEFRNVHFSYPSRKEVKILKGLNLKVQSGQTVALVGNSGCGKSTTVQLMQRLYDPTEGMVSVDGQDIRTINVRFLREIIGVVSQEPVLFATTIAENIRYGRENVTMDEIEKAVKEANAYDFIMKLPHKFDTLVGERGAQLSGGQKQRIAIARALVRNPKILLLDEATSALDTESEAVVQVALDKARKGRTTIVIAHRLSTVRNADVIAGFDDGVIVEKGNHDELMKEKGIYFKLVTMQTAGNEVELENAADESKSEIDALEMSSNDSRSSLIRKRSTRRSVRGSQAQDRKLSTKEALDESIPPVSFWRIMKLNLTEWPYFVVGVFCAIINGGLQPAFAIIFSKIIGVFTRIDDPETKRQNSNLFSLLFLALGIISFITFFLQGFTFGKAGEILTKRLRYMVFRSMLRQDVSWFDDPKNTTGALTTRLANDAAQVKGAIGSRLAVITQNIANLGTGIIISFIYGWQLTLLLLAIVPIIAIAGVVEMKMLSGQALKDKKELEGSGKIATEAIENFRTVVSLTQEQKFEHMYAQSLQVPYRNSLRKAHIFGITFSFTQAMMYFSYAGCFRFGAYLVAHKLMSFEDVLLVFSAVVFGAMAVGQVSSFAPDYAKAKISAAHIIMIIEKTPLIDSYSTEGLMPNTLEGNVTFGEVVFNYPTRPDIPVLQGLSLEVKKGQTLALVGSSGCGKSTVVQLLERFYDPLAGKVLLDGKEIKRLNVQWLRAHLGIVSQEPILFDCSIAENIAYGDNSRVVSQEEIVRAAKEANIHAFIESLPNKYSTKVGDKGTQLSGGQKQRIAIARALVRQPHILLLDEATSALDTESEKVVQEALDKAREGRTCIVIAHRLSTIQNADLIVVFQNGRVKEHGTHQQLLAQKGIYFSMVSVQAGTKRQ

Compound | efflux ratio (human MDR1 P-gp; dog, read-out: MDCK efflux ratio (BA/AB)) | EC50 (human CB1R) | MDCK efflux ratio (BA/AB) (human MDR1 P-gp)
CC(C)(CO)c1cc(NC(=O)C(C)(C)S(=O)(=O)CCCC(F)(F)F)on1 [Example 7 WO2010036630] | 6.9 | 28 µM | 
CC(C)(O)c1cc(NC(=O)C(C)(C)S(=O)(=O)CCCC(F)(F)F)on1 [Example 134 in WO2010036630] |  | 26 µM | 3.2
